Laboratory results published in ChEMBL document CHEMBL1201862, “PubChem BioAssay data set” (2004).
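Results reflect a 48-hour exposure of cells in 96-well plates to compound at five concentrations. GI50 marks 50% less growth.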 Active and inactive are the calls of the source. Rule as the data show it: active = GI50 up to about 1.1 µM and inactive = higher.

Key:
Experiment in all cases: growth of human tumour cells (NCI), 48 h
SNB-75 = tested on: SNB-75
NCI-H226 = tested on: NCI-H226
K562 = tested on: K562
Hs-578T = tested on: Hs-578T
RPMI-8226 = tested on: RPMI-8226
SW-620 = tested on: SW-620
U-251 = tested on: U-251
A549 = tested on: A549
TK-10 = tested on: TK-10
CAKI-1 = tested on: CAKI-1
M14 = tested on: M14
DU-145 = tested on: DU-145
HOP-62 = tested on: HOP-62
KM12 = tested on: KM12
PC-3 = tested on: PC-3
ACHN = tested on: ACHN
MCF7 = tested on: MCF7
SNB-19 = tested on: SNB-19
HL-60 = tested on: HL-60
HOP-92 = tested on: HOP-92
786-0 = tested on: 786-0
UACC-257 = tested on: UACC-257
A498 = tested on: A498
HT-29 = tested on: HT-29
OVCAR-8 = tested on: OVCAR-8
OVCAR-5 = tested on: OVCAR-5
NCI-H460 = tested on: NCI-H460
SK-MEL-5 = tested on: SK-MEL-5
UO-31 = tested on: UO-31
T47D = tested on: T47D
MDA-MB-231 = tested on: MDA-MB-231
HCC 2998 = tested on: HCC 2998
SK-OV-3 = tested on: SK-OV-3
SK-MEL-2 = tested on: SK-MEL-2
HCT-15 = tested on: HCT-15
OVCAR-3 = tested on: OVCAR-3
COLO 205 = tested on: COLO 205
HCT-116 = tested on: HCT-116
OVCAR-4 = tested on: OVCAR-4
LOX IMVI = tested on: LOX IMVI
EKVX = tested on: EKVX
UACC-62 = tested on: UACC-62
MOLT-4 = tested on: MOLT-4
MDA-N = tested on: MDA-N
SF-295 = tested on: SF-295
SN12C = tested on: SN12C
CCRF-CEM = tested on: CCRF-CEM
NCI/ADR-RES = tested on: NCI/ADR-RES
BT-549 = tested on: BT-549
RXF 393 = tested on: RXF 393
NCI-H23 = tested on: NCI-H23
IGROV-1 = tested on: IGROV-1
SF-268 = tested on: SF-268
SK-MEL-28 = tested on: SK-MEL-28
SF-539 = tested on: SF-539
MDA-MB-435 = tested on: MDA-MB-435

Q: How did the GI50 (SNB-75) turn out when `CC1=CC(C2/C(=N/O)C=C(C)CC2(C)C)C(O)C(C)(C)C1` (stereo unspecified) was run?
A: Its GI50 is 14.8 µM (inactive).

Q: What about the GI50 (NCI-H226) of the same molecule?
A: Its GI50 is 15.8 µM (inactive).

Q: And the GI50 (K562)?
A: Its GI50 is 14.2 µM (inactive).

Q: What about the GI50 (Hs-578T) of the same molecule?
A: Its GI50 is 31.8 µM (inactive).

Q: What about the GI50 (RPMI-8226) of the same molecule?
A: Its GI50 is 14 µM (inactive).

Q: What about the GI50 (SW-620) of the same molecule?
A: Its GI50 is 15.7 µM (inactive).

Q: And the GI50 (U-251)?
A: Its GI50 is 15.7 µM (inactive).

Q: And the GI50 (A549)?
A: The GI50 was 15.5 µM (inactive).

Q: What about the GI50 (TK-10) of the same molecule?
A: Its GI50 is 19.1 µM (inactive).

Q: What about the GI50 (CAKI-1) of the same molecule?
A: Its GI50 is 15 µM (inactive).

Q: And the GI50 (M14)?
A: The GI50 was 15.1 µM (inactive).

Q: And the GI50 (DU-145)?
A: Its GI50 is 15 µM (inactive).

Q: What about the GI50 (HOP-62) of the same molecule?
A: The GI50 was 14.9 µM (inactive).

Q: And the GI50 (KM12)?
A: The GI50 was 15.9 µM (inactive).

Q: What about the GI50 (PC-3) of the same molecule?
A: The GI50 was 16.1 µM (inactive).

Q: And the GI50 (ACHN)?
A: The GI50 was 18.9 µM (inactive).

Q: And the GI50 (MCF7)?
A: Its GI50 is 15.3 µM (inactive).

Q: And the GI50 (SNB-19)?
A: Its GI50 is 15.8 µM (inactive).

Q: What about the GI50 (HL-60) of the same molecule?
A: The GI50 was 16 µM (inactive).

Q: And the GI50 (HOP-92)?
A: Its GI50 is 14.1 µM (inactive).

Q: What about the GI50 (786-0) of the same molecule?
A: Its GI50 is 17.4 µM (inactive).

Q: And the GI50 (UACC-257)?
A: Its GI50 is 15.5 µM (inactive).

Q: And the GI50 (A498)?
A: Its GI50 is 18 µM (inactive).

Q: And the GI50 (HT-29)?
A: Its GI50 is 14.3 µM (inactive).

Q: And the GI50 (OVCAR-8)?
A: The GI50 was 17.5 µM (inactive).

Q: What about the GI50 (OVCAR-5) of the same molecule?
A: The GI50 was 19.1 µM (inactive).

Q: And the GI50 (NCI-H460)?
A: Its GI50 is 21.3 µM (inactive).

Q: And the GI50 (SK-MEL-5)?
A: Its GI50 is 15.1 µM (inactive).

Q: And the GI50 (UO-31)?
A: The GI50 was 15.6 µM (inactive).

Q: What about the GI50 (T47D) of the same molecule?
A: The GI50 was 12.8 µM (inactive).

Q: What about the GI50 (MDA-MB-231) of the same molecule?
A: The GI50 was 17.3 µM (inactive).

Q: And the GI50 (HCC 2998)?
A: Its GI50 is 14.1 µM (inactive).

Q: What about the GI50 (SK-OV-3) of the same molecule?
A: Its GI50 is 17.9 µM (inactive).

Q: What about the GI50 (SK-MEL-2) of the same molecule?
A: The GI50 was 16 µM (inactive).

Q: What about the GI50 (HCT-15) of the same molecule?
A: Its GI50 is 16.3 µM.

Q: What about the GI50 (OVCAR-3) of the same molecule?
A: The GI50 was 11.1 µM (inactive).

Q: And the GI50 (COLO 205)?
A: The GI50 was 17.1 µM (inactive).

Q: What about the GI50 (HCT-116) of the same molecule?
A: The GI50 was 15.7 µM (inactive).

Q: What about the GI50 (OVCAR-4) of the same molecule?
A: The GI50 was 15 µM (inactive).

Q: What about the GI50 (LOX IMVI) of the same molecule?
A: Its GI50 is 16.8 µM (inactive).

Q: What about the GI50 (EKVX) of the same molecule?
A: Its GI50 is 16.5 µM (inactive).

Q: What about the GI50 (UACC-62) of the same molecule?
A: The GI50 was 15.2 µM (inactive).

Q: And the GI50 (MOLT-4)?
A: The GI50 was 13.5 µM (inactive).

Q: What about the GI50 (MDA-N) of the same molecule?
A: Its GI50 is 17 µM (inactive).

Q: What about the GI50 (SF-295) of the same molecule?
A: The GI50 was 18.6 µM (inactive).

Q: And the GI50 (SN12C)?
A: The GI50 was 18.4 µM (inactive).

Q: And the GI50 (CCRF-CEM)?
A: Its GI50 is 22.8 µM (inactive).

Q: What about the GI50 (NCI/ADR-RES) of the same molecule?
A: Its GI50 is 16.3 µM (inactive).

Q: What about the GI50 (BT-549) of the same molecule?
A: The GI50 was 17.6 µM (inactive).

Q: And the GI50 (RXF 393)?
A: Its GI50 is 15.3 µM (inactive).

Q: And the GI50 (NCI-H23)?
A: Its GI50 is 16.2 µM (inactive).

Q: What about the GI50 (IGROV-1) of the same molecule?
A: Its GI50 is 17.3 µM (inactive).

Q: And the GI50 (SF-268)?
A: The GI50 was 18 µM (inactive).

Q: What about the GI50 (SK-MEL-28) of the same molecule?
A: Its GI50 is 15.7 µM (inactive).

Q: And the GI50 (SF-539)?
A: The GI50 was 24 µM (inactive).

Q: And the GI50 (MDA-MB-435)?
A: Its GI50 is 16.4 µM (inactive).
